Laboratory results as given in ChEMBL document CHEMBL4425161, “1α,2α-Epoxy-3β-hydroxy oleanolic acid derivatives regulation of the metabolism, haemolysis and β-lactamase gene expression in vitro and their structure-microbicidal activity relationship” (2016).
Calls of active or inactive are those of the source.

Tests used:
Escherichia coli [1] = assay: Antibacterial activity against Escherichia coli ATCC 25922 assessed as bacterial growth inhibition at 50 umol/L after 8 hrs by turbidimetric plate reader method; format: functional, organism-based
Escherichia coli [2] = assay: Antibacterial activity against Escherichia coli ATCC 25922 assessed as bacterial growth inhibition after 8 hrs by turbidimetric plate reader method; format: functional; conditions: for MBC: ATCC 25922, 8 h
Escherichia coli [3] = assay: Upregulation of acrA gene expression in Escherichia coli ATCC 25922 at 50 umol/L after 8 hrs by real time RT-PCR relative to gapA; format: functional, organism-based
Bacillus subtilis [4] = assay: Downregulation of yhdT gene expression in Bacillus subtilis ATCC 6051 at 50 umol/L after 8 hrs by semi-quantitative RT-PCR; format: functional, organism-based
Escherichia coli [5] = assay: Downregulation of iroD gene expression in Escherichia coli ATCC 25922 at 50 umol/L after 8 hrs by semi-quantitative RT-PCR; format: functional, organism-based
Escherichia coli [6] = assay: Downregulation of tsh gene expression in Escherichia coli ATCC 25922 at 50 umol/L after 8 hrs by semi-quantitative RT-PCR; format: functional, organism-based
Escherichia coli [7] = assay: Upregulation of acrA gene expression in Escherichia coli ATCC 25922 at 50 umol/L after 8 hrs by semi-quantitative RT-PCR; format: functional, organism-based
Escherichia coli [8] = assay: Downregulation of iroD gene expression in Escherichia coli ATCC 25922 at 50 umol/L after 8 hrs by real time RT-PCR; format: functional, organism-based
Bacillus subtilis [9] = assay: Downregulation of yqhC gene expression in Bacillus subtilis ATCC 6051 at 50 umol/L after 8 hrs by semi-quantitative RT-PCR; format: functional, organism-based
Bacillus subtilis [10] = assay: Downregulation of yhdT gene expression in Bacillus subtilis ATCC 6051 at 50 umol/L after 8 hrs by real time RT-PCR; format: functional, organism-based
Escherichia coli [11] = assay: Downregulation of tsh gene expression in Escherichia coli ATCC 25922 at 50 umol/L after 8 hrs by real time RT-PCR; format: functional, organism-based
Acinetobacter baumannii [12] = assay: Antibacterial activity against Acinetobacter baumannii ATCC BAA-1710D assessed as bacterial growth inhibition after 8 hrs by turbidimetric plate reader method; format: functional
Bacillus subtilis [13] = assay: Downregulation of yqhC gene expression in Bacillus subtilis ATCC 6051 at 50 umol/L after 8 hrs by real time RT-PCR; format: functional, organism-based
Bacillus subtilis [14] = assay: Antibacterial activity against Bacillus subtilis ATCC 6051 assessed as bacterial growth inhibition at 50 umol/L after 8 hrs by turbidimetric plate reader method; format: functional, organism-based
Klebsiella pneumoniae [15] = assay: Antibacterial activity against Klebsiella pneumoniae ATCC BAA-1705 assessed as bacterial growth inhibition after 8 hrs by turbidimetric plate reader method; format: functional; conditions: for MBC: ATCC BAA-1705, 8 h
Escherichia coli [16] = assay: Upregulation of cysB gene expression in Escherichia coli ATCC 25922 at 50 umol/L after 8 hrs by real time RT-PCR; format: functional, organism-based
Escherichia coli [17] = assay: Upregulation of cysB gene expression in Escherichia coli ATCC 25922 at 50 umol/L after 8 hrs by semi-quantitative RT-PCR; format: functional, organism-based
Bacillus subtilis [18] = assay: Downregulation of yqhB gene expression in Bacillus subtilis ATCC 6051 at 50 umol/L after 8 hrs by real time RT-PCR; format: functional, organism-based
Bacillus subtilis [19] = assay: Antibacterial activity against Bacillus subtilis ATCC 6051 assessed as bacterial growth inhibition after 8 hrs by turbidimetric plate reader method; format: functional; conditions: for MBC: ATCC 6051, 8 h
Bacillus subtilis [20] = assay: Downregulation of yqhB gene expression in Bacillus subtilis ATCC 6051 at 50 umol/L after 8 hrs by semi-quantitative RT-PCR; format: functional, organism-based
Acinetobacter baumannii [21] = assay: Upregulation of VEB gene expression in Acinetobacter baumannii ATCC BAA-1710D at 50 umol/L after 8 hrs by semi-quantitative RT-PCR; format: functional, organism-based
Acinetobacter baumannii [22] = assay: Antibacterial activity against Acinetobacter baumannii ATCC BAA-1710D assessed as bacterial growth inhibition at 50 umol/L after 8 hrs by turbidimetric plate reader method; format: functional, organism-based
Acinetobacter baumannii [23] = assay: Upregulation of CARB gene expression in Acinetobacter baumannii ATCC BAA-1710D at 50 umol/L after 8 hrs by real time RT-PCR; format: functional, organism-based
Acinetobacter baumannii [24] = assay: Upregulation of VEB gene expression in Acinetobacter baumannii ATCC BAA-1710D at 50 umol/L after 8 hrs by real time RT-PCR; format: functional, organism-based
Acinetobacter baumannii [25] = assay: Downregulation of PER gene expression in Acinetobacter baumannii ATCC BAA-1710D at 50 umol/L after 8 hrs by semi-quantitative RT-PCR; format: functional, organism-based
Acinetobacter baumannii [26] = assay: Upregulation of SHV gene expression in Acinetobacter baumannii ATCC BAA-1710D at 50 umol/L after 8 hrs by real time RT-PCR; format: functional, organism-based
Acinetobacter baumannii [27] = assay: Downregulation of PER gene expression in Acinetobacter baumannii ATCC BAA-1710D at 50 umol/L after 8 hrs by real time RT-PCR; format: functional, organism-based
Acinetobacter baumannii [28] = assay: Downregulation of GES gene expression in Acinetobacter baumannii ATCC BAA-1710D at 50 umol/L after 8 hrs by semi-quantitative RT-PCR; format: functional, organism-based
Acinetobacter baumannii [29] = assay: Upregulation of SHV gene expression in Acinetobacter baumannii ATCC BAA-1710D at 50 umol/L after 8 hrs by semi-quantitative RT-PCR; format: functional, organism-based
Acinetobacter baumannii [30] = assay: Upregulation of TEM gene expression in Acinetobacter baumannii ATCC BAA-1710D at 50 umol/L after 8 hrs by semi-quantitative RT-PCR; format: functional, organism-based
Acinetobacter baumannii [31] = assay: Downregulation of GES gene expression in Acinetobacter baumannii ATCC BAA-1710D at 50 umol/L after 8 hrs by real time RT-PCR; format: functional, organism-based
Acinetobacter baumannii [32] = assay: Upregulation of TEM gene expression in Acinetobacter baumannii ATCC BAA-1710D at 50 umol/L after 8 hrs by real time RT-PCR; format: functional, organism-based
Acinetobacter baumannii [33] = assay: Upregulation of CARB gene expression in Acinetobacter baumannii ATCC BAA-1710D at 50 umol/L after 8 hrs by semi-quantitative RT-PCR; format: functional, organism-based
Klebsiella pneumoniae [34] = assay: Downregulation of ldhD gene expression in Klebsiella pneumoniae ATCC BAA-1705 at 50 umol/L after 8 hrs by real time RT-PCR; format: functional, organism-based
Klebsiella pneumoniae [35] = assay: Upregulation of VEB gene expression in Klebsiella pneumoniae ATCC BAA-1705 at 50 umol/L after 8 hrs by semi-quantitative RT-PCR; format: functional, organism-based
Klebsiella pneumoniae [36] = assay: Upregulation of VEB gene expression in Klebsiella pneumoniae ATCC BAA-1705 at 50 umol/L after 8 hrs by real time RT-PCR; format: functional, organism-based
Klebsiella pneumoniae [37] = assay: Upregulation of GES gene expression in Klebsiella pneumoniae ATCC BAA-1705 at 50 umol/L after 8 hrs by real time RT-PCR; format: functional, organism-based
Klebsiella pneumoniae [38] = assay: Upregulation of PER-2 gene expression in Klebsiella pneumoniae ATCC BAA-1705 at 50 umol/L after 8 hrs by semi-quantitative RT-PCR; format: functional, organism-based
Klebsiella pneumoniae [39] = assay: Upregulation of IMP gene expression in Klebsiella pneumoniae ATCC BAA-1705 at 50 umol/L after 8 hrs by semi-quantitative RT-PCR; format: functional, organism-based
Klebsiella pneumoniae [40] = assay: Upregulation of GES gene expression in Klebsiella pneumoniae ATCC BAA-1705 at 50 umol/L after 8 hrs by semi-quantitative RT-PCR; format: functional, organism-based
Klebsiella pneumoniae [41] = assay: Upregulation of IMP gene expression in Klebsiella pneumoniae ATCC BAA-1705 at 50 umol/L after 8 hrs by real time RT-PCR; format: functional, organism-based
Klebsiella pneumoniae [42] = assay: Upregulation of PER-2 gene expression in Klebsiella pneumoniae ATCC BAA-1705 at 50 umol/L after 8 hrs by real time RT-PCR; format: functional, organism-based
Klebsiella pneumoniae [43] = assay: Downregulation of ldhD gene expression in Klebsiella pneumoniae ATCC BAA-1705 at 50 umol/L after 8 hrs by semi-quantitative RT-PCR; format: functional, organism-based
Klebsiella pneumoniae [44] = assay: Antibacterial activity against Klebsiella pneumoniae ATCC BAA-1705 assessed as bacterial growth inhibition at 50 umol/L after 8 hrs by turbidimetric plate reader method; format: functional, organism-based

CC1(C)CC[C@]2(C(=O)OCc3ccccc3C#N)CC[C@]3(C)C(=CC[C@@H]4[C@@]5(C)[C@H]6O[C@H]6[C@H](O)C(C)(C)[C@@H]5CC[C@]43C)[C@@H]2C1
5.3 µM: MBC (Escherichia coli [2])
2 µM: MBC (Bacillus subtilis [19])
active: growth inhibition (GI) (Escherichia coli [1]) | growth inhibition (GI) (Escherichia coli [2]) Dose-dependent effect | Activity (Escherichia coli [3]) | Activity (Bacillus subtilis [4]) | Activity (Escherichia coli [5]) | Activity (Escherichia coli [6]) | Activity (Escherichia coli [7]) | Activity (Escherichia coli [8]) | Activity (Bacillus subtilis [9]) | Activity (Bacillus subtilis [10]) | Activity (Escherichia coli [11]) | growth inhibition (GI) (Acinetobacter baumannii [12]) Dose-dependent effect | Activity (Bacillus subtilis [13]) | growth inhibition (GI) (Bacillus subtilis [14]) | growth inhibition (GI) (Klebsiella pneumoniae [15]) Dose-dependent effect | Activity (Escherichia coli [16]) | Activity (Escherichia coli [17]) | Activity (Bacillus subtilis [18]) | growth inhibition (GI) (Bacillus subtilis [19]) Dose-dependent effect | Activity (Bacillus subtilis [20])

NC[C@H]1O[C@H](O[C@H]2[C@H](O)[C@@H](O[C@H]3O[C@H](CO)[C@@H](O)[C@H](N)[C@H]3O)[C@H](N)C[C@@H]2N)[C@H](O)[C@@H](O)[C@@H]1O [KANAMYCIN]
1.6 µM: MBC (Acinetobacter baumannii [12])

CC(=O)O[C@H]1[C@@H]2O[C@@H]2[C@]2(C)[C@H]3CC=C4[C@@H]5CC(C)(C)CC[C@]5(C(=O)O)CC[C@@]4(C)[C@]3(C)CC[C@H]2C1(C)C
2.8 µM: MBC (Acinetobacter baumannii [12])
active: Activity (Acinetobacter baumannii [21]) | growth inhibition (GI) (Acinetobacter baumannii [22]) | growth inhibition (GI) (Escherichia coli [2]) Dose-dependent effect | Activity (Acinetobacter baumannii [23]) | Activity (Acinetobacter baumannii [24]) | Activity (Acinetobacter baumannii [25]) | Activity (Acinetobacter baumannii [26]) | Activity (Acinetobacter baumannii [27]) | Activity (Acinetobacter baumannii [28]) | Activity (Acinetobacter baumannii [29]) | Activity (Acinetobacter baumannii [30]) | growth inhibition (GI) (Acinetobacter baumannii [12]) Dose-dependent effect | growth inhibition (GI) (Klebsiella pneumoniae [15]) Dose-dependent effect | Activity (Acinetobacter baumannii [31]) | Activity (Acinetobacter baumannii [32]) | growth inhibition (GI) (Bacillus subtilis [19]) Dose-dependent effect | Activity (Acinetobacter baumannii [33])

CCCOC(=O)[C@]12CCC(C)(C)C[C@H]1C1=CC[C@@H]3[C@@]4(C)[C@H]5O[C@H]5[C@H](O)C(C)(C)[C@@H]4CC[C@@]3(C)[C@]1(C)CC2
active: Activity (Klebsiella pneumoniae [34]) | Activity (Klebsiella pneumoniae [35]) | Activity (Klebsiella pneumoniae [36]) | growth inhibition (GI) (Escherichia coli [2]) Dose-dependent effect | Activity (Klebsiella pneumoniae [38]) | growth inhibition (GI) (Acinetobacter baumannii [12]) Dose-dependent effect | Activity (Klebsiella pneumoniae [39]) | Activity (Klebsiella pneumoniae [41]) | Activity (Klebsiella pneumoniae [42]) | growth inhibition (GI) (Klebsiella pneumoniae [15]) Dose-dependent effect | Activity (Klebsiella pneumoniae [43]) | growth inhibition (GI) (Klebsiella pneumoniae [44]) | growth inhibition (GI) (Bacillus subtilis [19]) Dose-dependent effect
inactive: Activity (Klebsiella pneumoniae [37]) | Activity (Klebsiella pneumoniae [40])
1.5 µM: MBC (Klebsiella pneumoniae [15])

CN[C@@H]1[C@H](O[C@H]2[C@H](O[C@H]3[C@H](O)[C@@H](O)[C@H](N=C(N)N)[C@@H](O)[C@@H]3N=C(N)N)O[C@@H](C)[C@]2(O)C=O)O[C@@H](CO)[C@H](O)[C@H]1O [STREPTOMYCIN]
2.1 µM: MBC (Bacillus subtilis [19])
1.3 µM: MBC (Klebsiella pneumoniae [15])

CO[C@H]1[C@@H]2O[C@@H]2[C@]2(C)[C@H]3CC=C4[C@@H]5CC(C)(C)CC[C@]5(C(=O)O)CC[C@@]4(C)[C@]3(C)CC[C@H]2C1(C)C
inactive: growth inhibition (GI) (Escherichia coli [1]) | growth inhibition (GI) (Acinetobacter baumannii [22]) | growth inhibition (GI) (Bacillus subtilis [14]) | growth inhibition (GI) (Klebsiella pneumoniae [44])

CC1(C)S[C@@H]2[C@H](NC(=O)[C@H](N)c3ccccc3)C(=O)N2[C@H]1C(=O)O [AMPICILLIN]
1.8 µM: MBC (Escherichia coli [2])

CCOC(=O)[C@]12CCC(C)(C)C[C@H]1C1=CC[C@@H]3[C@@]4(C)[C@H]5O[C@H]5[C@H](O)C(C)(C)[C@@H]4CC[C@@]3(C)[C@]1(C)CC2
inactive: Activity (Klebsiella pneumoniae [37]) | Activity (Klebsiella pneumoniae [40])
1.8 µM: MBC (Klebsiella pneumoniae [15])
active: Activity (Klebsiella pneumoniae [34]) | Activity (Klebsiella pneumoniae [35]) | Activity (Klebsiella pneumoniae [36]) | growth inhibition (GI) (Escherichia coli [2]) Dose-dependent effect | Activity (Klebsiella pneumoniae [38]) | growth inhibition (GI) (Acinetobacter baumannii [12]) Dose-dependent effect | Activity (Klebsiella pneumoniae [39]) | Activity (Klebsiella pneumoniae [41]) | Activity (Klebsiella pneumoniae [42]) | growth inhibition (GI) (Klebsiella pneumoniae [15]) Dose-dependent effect | Activity (Klebsiella pneumoniae [43]) | growth inhibition (GI) (Klebsiella pneumoniae [44]) | growth inhibition (GI) (Bacillus subtilis [19]) Dose-dependent effect
